Our source for the IC50 values is US20220402950A1, “SUBSTITUTED BENZIMIDAZOLES AS PAD4 INHIBITORS” (BRISTOL-MYERS SQUIBB COMPANY, priority 2018, published 2022).

Where two headings read alike, the source gives them in different places.

The assay concerns the target human PAD4 (hPAD4) (Homo sapiens, UniProt Q9UM07). The assay is described as follows: RFMS Human PAD4 Functional Assay. It counts as biochemical. As to conditions: 5 nM hPAD4, 250 μM BAEE. The method in brief: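 RapidFire ESI-MS quantification, normalised to a modified-citrulline internal standard, after phenyl glyoxal (final 4 mM) derivatisation of the TCA-quenched reaction. The enzyme (10 nM) sat 30 min with compound (up to 50 μM final) before 500 μM BAEE (as added) started a 90 min, 37 °C reaction. Buffer: HEPES pH 7.5, 50 μM calcium, 5 μM TPEN.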

The mark [1] stands for this setting: hPAD4 RFMS IC50, human PAD4, rapid-fire mass spectrum (RFMS) assay.
[2] abbreviates: human PAD4, rapid-fire mass spectrum (RFMS) assay, read-out: hPAD4 RFMS IC50.

human PAD4 (hPAD4), sequence (Q9UM07 whole entry): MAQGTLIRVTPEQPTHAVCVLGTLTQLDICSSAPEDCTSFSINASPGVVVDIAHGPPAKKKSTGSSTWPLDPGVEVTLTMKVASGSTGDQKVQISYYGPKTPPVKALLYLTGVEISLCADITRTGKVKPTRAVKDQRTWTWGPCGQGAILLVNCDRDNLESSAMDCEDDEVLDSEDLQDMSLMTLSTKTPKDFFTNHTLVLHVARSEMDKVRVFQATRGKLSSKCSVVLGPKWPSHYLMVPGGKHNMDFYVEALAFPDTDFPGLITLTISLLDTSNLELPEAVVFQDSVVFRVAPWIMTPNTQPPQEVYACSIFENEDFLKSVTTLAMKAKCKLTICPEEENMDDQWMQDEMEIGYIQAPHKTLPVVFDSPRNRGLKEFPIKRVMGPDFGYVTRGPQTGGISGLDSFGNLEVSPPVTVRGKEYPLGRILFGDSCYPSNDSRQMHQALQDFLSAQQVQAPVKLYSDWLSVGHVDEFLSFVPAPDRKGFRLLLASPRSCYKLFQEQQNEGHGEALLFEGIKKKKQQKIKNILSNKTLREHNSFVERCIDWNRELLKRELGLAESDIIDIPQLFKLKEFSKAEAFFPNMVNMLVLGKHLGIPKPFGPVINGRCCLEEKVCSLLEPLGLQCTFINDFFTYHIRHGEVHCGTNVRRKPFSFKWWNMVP

As to `COc1cc(C(=O)N2C[C@H]3CC[C@@H]2[C@@H]3N)cc2nc(-c3cc4cccc(CCC#N)c4n3CC3CC3)n(C)c12` [Example 19, 3-(2-{5-[(1R,4R,7R)-7-amino-2-azabicyclo[2.2.1]heptane-2-carbonyl]-7-methoxy-1-methyl-1H-1,3-benzodiazol-2-yl}-1-(cyclopropylmethyl)-1H-indol-7-yl)propanenitrile], under setting [1], the IC50 was 90 nM.
The compound `COc1cc(C(=O)N2C[C@H]3CC[C@@H]2[C@@H]3N)cc2nc(-c3cc4cccc(Nc5cn(C)nc5C)c4n3CC3CC3(Cl)Cl)n(C)c12` (stereo partly drawn) [Example 179, ((1R,4R,7R)-7-amino-2-azabicyclo[2.2.1]heptan-2-yl)(2-(1-((2,2-dichlorocyclopropyl)meth-yl)-7-((1,3-dimethyl-1H-pyrazol-4-yl)amino)-1H-indol-2-yl)-7-methoxy-1-methyl-1H-benzo[d]imidazol-5-yl)methanone] yielded an IC50 under setting [1] of 24 nM.
For `COc1cc(C(=O)N2C[C@H]3CC[C@@H]2[C@@H]3N)cc2nc(-c3cc4cc(C)ccc4n3CC3CC3)n(C)c12` [Example 153, ((1R,4R,7R)-7-amino-2-azabicyclo[2.2.1]heptan-2-yl)(2-(1-(cyclopropylmethyl)-5-methyl-1H-indol-2-yl)-7-methoxy-1-methyl-1H-benzo[d]imidazol-5-yl)methanone], under setting [2], the IC50 came to 135 nM.
As for `COc1cc(C(=O)N2CC3CCC2[C@@H]3N)cc2nc(-c3cc4cccc(Nc5ccnc(C)c5)c4n3CC3CC3)n(C)c12` (stereo partly drawn) [Example 163, ((7R)-7-amino-2-azabicyclo[2.2.1]heptan-2-yl)(2-(1-(cyclopropylmethyl)-7-((2-methylpyridin-4-yl)amino)-1H-indol-2-yl)-7-methoxy-1-methyl-1H-benzo[d]imidazol-5-yl)methanone], the midpoint of inhibition under setting [1], the IC50, lay at 58 nM.
As to `COc1cc(C(=O)N2C[C@H]3CC[C@@H]2[C@@H]3N)cc2nc(-c3cc4cccc(C5CCN(C(=O)Nc6ccccc6)CC5)c4n3CC3CC3)n(C)c12` [Example 187, 4-(2-(5-((1R,4R,7R)-7-amino-2-azabicyclo[2.2.1]heptane-2-carbonyl)-7-methoxy-1-methyl-1H-benzo[d]imidazol-2-yl)-1-(cyclopropylmethyl)-1H-indol-7-yl)-N-phenylpiperidine-1-carboxamide], the IC50 under setting [2] is 18 nM.

A word on the IC50: it is the point on the concentration scale where inhibition reaches its midpoint.
